Measurements published in ChEMBL document CHEMBL1140449, “Preliminary studies of new proteasome inhibitors in the tumor targeting approach: synthesis and in vitro cytotoxicity” (J Med Chem, 2005).
Where a SMILES comes first, the peptide text is derived from it. The star is where a group is joined. Cbz = O=C(OCc1ccccc1)*

What was measured:
[1] = Inhibitory concentration for cytotoxic activity against human ocular melanoma IPC227F cells upon incubation for 48 h at 37 °C
[2] = Inhibitory concentration for cytotoxic activity against human ocular melanoma IPC227F cells upon incubation for 48 h at 37 °C; No inhibition

Compound	IC50 [1]	IC50 [2]
CCN(CC)CCNC(=O)c1ccc(C(=O)N[C@@H](CC(C)C)C(=O)N[C@@H](Cc2ccccc2)C(=O)N[C@H](C=O)CC(C)C)cc1	2.84 µM	
CCN(CC)CCNC(=O)c1ccc(C(=O)N[C@@H](Cc2ccccc2)C(=O)N[C@H](C=O)CC(C)C)cc1	20.9 µM	
CCN(CC)CCNC(=O)c1ccc(C(=O)N[C@@H](CC(C)C)C(=O)N[C@@H](CC(C)C)C(=O)N[C@H](C=O)CC(C)C)cc1	0.64 µM	
CCN(CC)CCNC(=O)c1ccc(C(=O)N[C@@H](Cc2ccccc2)C(=O)N[C@@H](CC(C)C)C(=O)N[C@H](C=O)CC(C)C)cc1	11.9 µM	
CCN(CC)CCNC(=O)c1ccc(C(=O)N[C@@H](CC(C)C)C(=O)N[C@H](C=O)CC(C)C)cc1		Not Active
CCN(CC)CCNC(=O)c1ccc(C(=O)N[C@H](C=O)CC(C)C)cc1		Not Active
CC(C)C[C@@H](C=O)NC(=O)[C@H](CC(C)C)NC(=O)[C@H](CC(C)C)NC(=O)OCc1ccccc1 [MG-132] (Cbz-Leu-Leu-Leu-aldehyde)	0.077 µM	
